The procedure of data set [1]: (§1) Minimum inhibition concentrations (MIC) and minimum hemolytic concentrations (MHC) were measured as described in Li et al., Antimicrob. Agents. Chemother., 1999, 43, 1347.
Data set [2] deals with E. coli (ATCC 25922). Briefly: Sensitization to erythromycin, E. coli (ATCC 25922). Type of data set: cell-based, Escherichia coli. The settings on record: Table 16; E. coli. On the procedure:
FICs can be performed by checkerboard titrations of compounds in one dimension of a microtiter plate, and of antibiotics in the other dimension, for example. The FIC is calculated by looking at the impact of one antibiotic on the MIC of the other and vice versa. […] Preferably, an FIC of less than 0.5 is obtained for synergism. As used herein, FIC can be determined as follows:
(§2) Aliquots of 1 mL of the suspension were added to test tubes containing 1 mL TSB and incrementally varied concentrations of cholic acid derivatives and/or erythromycin or novobiocin. In the sensitization experiments, erythromycin or novobiocin were added 15 minutes later than the cholic acid derivatives. The samples were subjected to stationary incubation at 37° C. for 24 hours. Sample turbidity was determined by measuring absorption at 760 nm (HP 8453 UV-Visible Chemstation, Hewlett Packard). Additionally, an alliquot from each of the samples showing no measurable turbidity was subcultured on TSA plates (alliquots were diluted to provide fewer than 300 CFU). Colonies that grew on the subculture after overnight incubation were counted and the number of CFU/mL in the samples were calculated. The calculated values were compared to the number of CFU/mL in the original inoculum.
Concentrations of 0.5, 1.0 or 3.0 μg/mL of these antibiotics were used, and the concentrations of the cholic acid derivatives required to inhibit bacterial growth of Gram-negative strains were determined.
as §1

For data set [3], the system named is E. coli (ATCC 25922). Put plainly: MIC and MBC measurement with E. coli (ATCC 25922). The data set is classed as cell-based, Escherichia coli. Particulars: for MIC (MIC^b): Table 16, E. coli (ATTC 25922).
Text: (§3) General: Microorganisms. Reference strains were purchased from the American Type Culture Collection (Rockville, Md.) or Bactrol disks from Difeo Laboratories (Detroit, Mich.). The following specific ATCC strains were used: 10798 Escherichia coli, 25922 Escherichia coli, 13883 Klebsiella pneumoniae, 27853 Pseudomonas aeruginosa, 14028 Salmonella typhimurium, 29212 Enterococcus faecalis, 25923 Staphylococcus aureus, 19615 Streptococcus pyogenes, and 90028 Candida albicans. Bacterial strains were maintained on Mueller-Hinton agar plates, and Candida albicans was maintained on Sabouraud Dextrose agar plates.
(§4) Tryptic soy broth (TSB) was made by dissolving 27.5 grams of tryptic soy broth without dextrose (DIFCO Laboratories) in 1 liter of deionized water and sterilizing at 121° C. for 15 minutes. Solid agar (TSA) plates were made by dissolving 6.4 grams of tryptic soy broth and 12 grams of agar (purified grade, Fischer Scientific) in 800 mL of deionized water and sterilizing at 121° C. for 20 minutes. Aliquots (20 mL) of the homogeneous solution were then poured in sterile plastic petri dishes (100×15 mm, Fisher Scientific). Solutions of compounds were made by dissolving the HCl salt of the respective compound into an appropriate amount of deionized and sterilized water followed by microfiltration.
as §2, with “inoculum. […]” for “inoculum.”

In data set [4] the test system is Staphylococcus aureus ATCC 25923. Briefly: MIC and MBC measurement with Staphylococcus aureus ATCC 25923. Type of data set: cell-based. Particulars: for MIC (MIC^a): Table 16, S. aureus (ATTC 25923).
Text: as §3, §4
as §2, with “inoculum. […]” for “inoculum.”

≈ marks a conversion by molar mass, not a printed value. A value given as a limit tells only on which side of the number the result lay.

What is called MBC is the smallest concentration meeting the test's criterion for killing. The low end stands for greater bactericidal potency, the high end for weaker bactericidal potency.

`C[C@H](CCC(=O)O)[C@H]1CC[C@H]2[C@@H]3[C@H](OC(=O)CN)C[C@@H]4C[C@H](OC(=O)CN)CC[C@]4(C)[C@H]3C[C@H](OC(=O)CN)[C@]12C` [Compound 327]: the “MHC (minimum hemolytic concentration)” value in data set [1] was greater than 100 µg/mL. Moreover, in the data set on E. coli (ATCC 25922) [2], the “c: concentration required to lower the MIC of erythromycin from 36 to 1 μg/mL” value is greater than 100 µg/mL. Moreover, the “MIC (MIC^b)” value in the data set on E. coli (ATCC 25922) [3] is greater than 100 µg/mL. For the same compound, in data set [4], the “MIC (MIC^a)” value is greater than 100 µg/mL.
For `CCCCCCCCOC(=O)CC[C@@H](C)[C@H]1CC[C@H]2[C@@H]3[C@H](OC(=O)CN)C[C@@H]4C[C@H](OC(=O)CN)CC[C@]4(C)[C@H]3C[C@H](OC(=O)CN)[C@]12C` [Compound 341], the “c: concentration required to lower the MIC of erythromycin from 36 to 1 μg/mL” value in the data set on E. coli (ATCC 25922) [2] was found to be 0.7 µg/mL. The “MIC (MIC^b)” value with E. coli (ATCC 25922) [3] was 1.0 µg/mL (≈ 1.45 µM). For the same compound, the “MIC (MIC^a)” value in data set [4] worked out at 1.8 µg/mL (≈ 2.6 µM).
On the same counts, the results for `CCCCCCCCOC(=O)CC[C@@H](C)[C@H]1CC[C@H]2[C@@H]3[C@H](OC(=O)CCCN)C[C@@H]4C[C@H](OC(=O)CCCN)CC[C@]4(C)[C@H]3C[C@H](OC(=O)CCCN)[C@]12C` [Compound 343] are 3.5 µg/mL, 3.5 µg/mL (≈ 4.51 µM) and 1.2 µg/mL (≈ 1.55 µM).
With polymyxin B [PMB, reference compound], the MBC in the data set with E. coli (ATCC 25922) [3] (Table 10, Escherichia coli ATCC 25922) was 1.8 µg/mL; in data set [4] (Table 10, Staphylococcus aureus ATCC 25923), greater than 100 µg/mL.

The record behind these values is patent US7598234B2, “Steroid derived antibiotics” (Brigham Young University, priority 1998, dated 2009).
